Experimental data as given in patent publication US8716180B2 (priority 2005, dated 2014).
Read-outs that look alike come from different tables or passages of the source.

System: GFP genetically modified strain of F. graminearum
Assay type: in vivo, Fusarium graminearum
Conditions: seed treatment 5 g a.i./100 kg seeds

Measured: Intensity of F. graminearum (PCR analysis: 0 to 4 scale)

N#Cc1c[nH]cc1-c1cccc2c1OC(F)(F)O2 [Lot B, fludioxonil]
0: Beginning of earing (GS 51), 1st internode | Beginning of earing (GS 51), 2nd internode | Beginning of earing (GS 51), 3rd internode | Beginning of earing (GS 51), 4th internode | Beginning of earing (GS 51), ear | Ear 1-2 cm (GS 31), First internode | Ear 1-2 cm (GS 31), Future internodes and ear | Ear 1-2 cm (GS 31), Second internode | End of tillering (GS 29), Above bottom of the plant (0.5 cm) | End of tillering (GS 29), Bottom of the plant (0.5 cm) | End of tillering (GS 29), Secondary roots | End of tillering (GS 29), primary roots | End of tillering (GS 29), rhizome | Full maturity (GS 94), 1st internode | Full maturity (GS 94), 2nd internode | Full maturity (GS 94), 3rd internode | Full maturity (GS 94), 4th internode | Full maturity (GS 94), 5th internode | Full maturity (GS 94), Ear + grains
